In patent US11591306B2, “Vitamin E-based amphipathic compound, and use thereof” (Industry-University Cooperation Foundation Hanyang …, priority 2017, dated 2023):
“And” between values parts separate entries of the source, which are not always exact repeats. Identical values can stand only once. “Also recorded” adds a separate entry of the source.

Columns and labels:
[1] = Hydrodynamic radius of micelles by dynamic light scattering (DLS); type: physicochemical; conditions: at 1.0 wt %
Experimental: A method of measuring the radius of a micelle is not particularly limited, but may be a method well known in the art, for example, dynamic light scattering (DLS).
(§1) To identify the properties of VEGs synthesized according to the synthetic methods of Preparation Examples 1 to […] molecular weights (M.W.) and critical micellar concentrations (CMCs) of VEGs, and the hydrodynamic radii (Rh) of formed micelles were measured.
(§2) Specifically, the CMCs were measured using hydrophobic fluorescence staining and diphenylhexatriene (DPH), and the hydrodynamic radii (Rh) of the micelles formed by each formulation were measured by dynamic light scattering (DLS).

[2] = Critical micelle concentration by hydrophobic fluorescence staining with diphenylhexatriene (DPH); type: physicochemical; conditions: aqueous solution
Experimental: A method of measuring CMC is not particularly limited, and may be a method widely known in the art, for example, fluorescent staining using diphenylhex riene (DPH).
as §1, §2

β2AR = biological target: T1, β2AR (Homo sapiens, UniProt P07550); experiment: β2AR stability, [3H]-dihydroalprenolol (DHA) ligand binding; conditions: CMC+0.2 wt %, 10 days at room temperature
T1 construct: made in house; host or cells: Sf9 insect cells, baculovirus
T1 sequence (P07550 whole entry): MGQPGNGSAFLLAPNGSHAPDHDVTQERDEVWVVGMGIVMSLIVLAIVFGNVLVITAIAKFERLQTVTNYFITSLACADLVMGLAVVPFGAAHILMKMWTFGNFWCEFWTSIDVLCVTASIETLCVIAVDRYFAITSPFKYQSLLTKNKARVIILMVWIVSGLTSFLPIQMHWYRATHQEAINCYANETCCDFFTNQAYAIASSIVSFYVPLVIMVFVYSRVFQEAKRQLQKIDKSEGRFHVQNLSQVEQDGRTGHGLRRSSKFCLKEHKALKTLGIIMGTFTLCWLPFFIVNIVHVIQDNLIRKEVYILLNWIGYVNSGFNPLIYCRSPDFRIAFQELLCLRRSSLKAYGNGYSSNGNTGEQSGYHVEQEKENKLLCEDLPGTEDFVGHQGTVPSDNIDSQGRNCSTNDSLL
Experimental: A receptor was expressed in Sf9 insect cells infected with Baculovirus and solubilized in 1% DDM. The DDM-solubilized receptor was purified by alprenolol-sepharose in the presence of 0.01% cholesteryl succinate (CHS). β2AR purified by DDM was diluted with a buffer containing DDM or VEGs (VEG-1, VEG-2, VEG-3 and VEG-5) to reach the final concentration of CMC+0.2 wt %. β2AR solubilized in each compound was stored for 10 days at room temperature, and the ligand binding ability of the receptor was measured at regular intervals by incubating the receptor with 10 nM radioactive [^3H]-dihydroalprenolol (DHA) for 30 minutes at room temperature. The mixture was loaded into a G-50 column, and a supernatant was collected using a certain amount of binding buffer (supplemented with […] pH 7.5, 100 mM NaCl, 0.5 mg/ml BSA). In addition, a 15 ml scintillation fluid was added. Receptor-binding [^3H]-DHA was measured using a scintillation counter (Beckman).

UapA [3] = biological target: T2, UapA (Emericella nidulans, UniProt Q07307, G411V); experiment: UapA extraction and thermal stability by fluorescence size exclusion chromatography (FSEC); design: made in house; conditions: for UapA integrity after thermal treatment (FSEC): 45° C. for 10 minutes; for Ability to extract and solubilize UapA (FSEC): before thermal treatment, 60 minutes on ice
T2 sequence (Q07307 12-574 G411V): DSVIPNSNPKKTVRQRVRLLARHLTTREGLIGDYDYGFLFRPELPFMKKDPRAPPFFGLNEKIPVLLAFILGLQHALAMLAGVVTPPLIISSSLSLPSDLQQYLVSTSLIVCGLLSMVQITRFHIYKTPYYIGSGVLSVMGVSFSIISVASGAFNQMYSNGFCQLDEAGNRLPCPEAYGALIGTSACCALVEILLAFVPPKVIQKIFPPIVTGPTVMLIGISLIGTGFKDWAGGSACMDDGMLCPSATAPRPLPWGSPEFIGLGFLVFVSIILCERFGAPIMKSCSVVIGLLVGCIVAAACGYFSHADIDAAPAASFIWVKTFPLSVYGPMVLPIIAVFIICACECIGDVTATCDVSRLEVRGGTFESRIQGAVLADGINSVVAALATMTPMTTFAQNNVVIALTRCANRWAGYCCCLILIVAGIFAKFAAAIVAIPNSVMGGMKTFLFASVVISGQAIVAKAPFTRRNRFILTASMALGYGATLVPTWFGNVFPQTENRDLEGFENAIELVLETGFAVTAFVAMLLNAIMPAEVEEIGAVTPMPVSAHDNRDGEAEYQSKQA
Experimental: The membrane containing UapA was resuspended in a pH 8.0 PBS buffer containing 10 mM imidazole, 150 mM NaCl and 10% glycerol, and a protein concentration was measured. The membrane was adjusted to a concentration of 1 mg/ml, and a 1 ml aliquot was incubated for 60 minutes with each of 1.0 mL of DDM, LMNG, VEG-3 and VEG-5, on ice under stirring. A 100 uL aliquot was obtained from each tube and subjected to ultracentrifugation for 10 minutes at 150,000 g, and then fluorescent SEC (FSEC) was performed on each sample. The remaining soluble fractions were incubated for 10 minutes at 45° C. The thermally-treated samples were applied to FSEC to monitor the integrity of a transporter. FSEC was performed using a Superose6 column (GE Healthcare) equilibrated with a buffer containing an appropriate preparation (DDM, LMNG, VEG-3 or VEG-5).

UapA [4] = biological target: T2, UapA; experiment: UapA thermal stability, CPM assay; design: made in house; host or cells: Saccharomyces cerevisiae FGY217 membranes; conditions: CMC+0.2 wt %, 40° C. for 120 minutes
Experimental: UapAG411VΔ1-11 (hereinafter, referred to as “UapA”) was expressed in a Saccharomyces cerevisiae FGY217 strain by GFP fusion, and isolated into a sample buffer (20 mM Tris (pH 7.5), 150 mM NaCl, 0.03% DDM, 1 mM xanthine), which was performed according to the method disclosed in the paper written by J. Leung et al. (Mol. Menthr. Biol. 2013, 30, 32-42). The protein was concentrated to be approximately 10 mg/ml using a 100 kDa molecular weight cutoff filter (Millipore). The protein was diluted 1:150 with a buffer containing DDM, VEG (VEG-1, VEG-2, VEG-3, VEG-4 or VEG-5) or LMNG at CMC+0.2 wt % in Greiner 96. CPM dye (Invitrogen) stored in DMSO (Sigma) was diluted with a dye buffer (20 mM Tris (pH 7.5), 150 mM NaCl, 0.03% DDM, 5 mM EDTA), and 3 μL of the diluted dye was added to an individual protein sample. The reaction mixture was treated at a constant temperature of 40° C. for 120 minutes. A fluorescence emission intensity was monitored using a microplate spectrofluorometer set to excitation and emission wavelengths of 387 and 463 nm, respectively. The maximum fluorescence value was used to calculate the percentage of a protein folded during incubation. The relative amount of the folded protein was plotted over time using GraphPad Prism.

[5] = biological target: T3, MelBSt (melibiose permease) (Salmonella typhimurium, UniProt P30878); experiment: MelBSt extraction/solubilization and thermal stability, SDS-PAGE and Western blotting
T3 construct: made in house; host or cells: E. coli DW2 (ΔmelB and ΔlacZY), plasmid pK95ΔAHB/WT MelBSt/CH10
T3 sequence (P30878 whole entry): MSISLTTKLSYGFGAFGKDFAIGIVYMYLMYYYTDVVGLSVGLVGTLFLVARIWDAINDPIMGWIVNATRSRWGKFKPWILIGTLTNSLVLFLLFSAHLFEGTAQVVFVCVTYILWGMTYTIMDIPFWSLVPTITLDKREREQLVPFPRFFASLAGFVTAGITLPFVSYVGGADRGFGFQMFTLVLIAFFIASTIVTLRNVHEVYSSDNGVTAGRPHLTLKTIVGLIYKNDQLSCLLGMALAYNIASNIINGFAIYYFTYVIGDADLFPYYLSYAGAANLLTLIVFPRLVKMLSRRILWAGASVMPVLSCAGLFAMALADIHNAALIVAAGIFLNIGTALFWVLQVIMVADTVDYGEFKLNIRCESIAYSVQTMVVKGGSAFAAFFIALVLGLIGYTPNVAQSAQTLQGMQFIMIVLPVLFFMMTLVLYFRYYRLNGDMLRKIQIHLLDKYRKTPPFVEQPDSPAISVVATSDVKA
Experimental: Specifically, Salmonella typhimurium MelBSt (melibiose permease) having a 10 His tag at the C-terminus was expressed in E. coli DW2 cells (ΔmelB and ΔlacZY) using a pK95ΔAHB/WT MelBSt/CH10 plasmid. Cell growth and membrane preparation were carried out according to the methods disclosed in the paper written by A. S. Ethayathulla et al. (Nat. Commun. 2014, 5, 3009). A protein assay was performed using a Micro BCA kit (Thermo Scientific, Rockford, Ill.). MelBSt stability in VEGs or DDM was evaluated using the protocol disclosed in Nat. Methods 2010, 7, 1003-1008, written by P. S. Chae et al. A MelBSt-containing membrane sample (the final protein concentration was 10 mg/mL) was incubated in a solubilization buffer containing 1.5% (w/v) DDM or VEGs (50 mM sodium phosphate, pH 7.5, 200 mM NaCl, 10% glycerol, 20 mM melibiose) at two different temperatures (0 and 23° C.) for 90 minutes. To remove an insoluble material, ultracentrifugation was performed using a Beckman Optima™ MAX ultracentrifuge equipped with a TLA-100 rotor at 355,590 g and 4° C. for 30 minutes. […] The loaded samples were analyzed by SDS-15% PAGE, and then visualized by immunoblotting with a Penta-His-HRP antibody (Qiagen, Germantown, Md.).
To assess the thermal stability of MelBSt in various amphipathic molecules, MelBSt extracted with individual amphipathic molecules at 23° C. was subjected to additional thermal treatment at three different temperature (45, 55 and 65° C.) and ultracentrifugation, followed by SDS-15% PAGE and Western blotting. MelBSt was detected using a SuperSignalWest Pico chemiluminescent substrate by an ImageQuant LAS 4000 Biomolecular Imager (GE Healthcare Life Science).

β2AR-Gs complex [6] = biological target: T4, β2AR-Gs complex (Homo sapiens, UniProt P07550); conditions: DDM-purified complex, previous study; cited from earlier work
T4 construct: made in house
T4 sequence (P07550 whole entry): as the sequence (P07550 whole entry) above
T4 sequence (P63092 whole entry partner): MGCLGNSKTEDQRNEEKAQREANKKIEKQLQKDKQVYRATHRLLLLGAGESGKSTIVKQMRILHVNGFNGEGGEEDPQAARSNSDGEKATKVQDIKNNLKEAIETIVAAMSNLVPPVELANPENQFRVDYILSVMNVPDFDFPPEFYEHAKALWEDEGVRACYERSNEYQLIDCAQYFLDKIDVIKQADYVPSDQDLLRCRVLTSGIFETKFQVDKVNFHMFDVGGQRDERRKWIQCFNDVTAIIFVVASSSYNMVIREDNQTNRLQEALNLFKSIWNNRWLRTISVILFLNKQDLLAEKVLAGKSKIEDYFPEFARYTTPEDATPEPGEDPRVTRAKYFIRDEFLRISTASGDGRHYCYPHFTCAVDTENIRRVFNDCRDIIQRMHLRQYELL
T4 sequence (P62873 whole entry partner): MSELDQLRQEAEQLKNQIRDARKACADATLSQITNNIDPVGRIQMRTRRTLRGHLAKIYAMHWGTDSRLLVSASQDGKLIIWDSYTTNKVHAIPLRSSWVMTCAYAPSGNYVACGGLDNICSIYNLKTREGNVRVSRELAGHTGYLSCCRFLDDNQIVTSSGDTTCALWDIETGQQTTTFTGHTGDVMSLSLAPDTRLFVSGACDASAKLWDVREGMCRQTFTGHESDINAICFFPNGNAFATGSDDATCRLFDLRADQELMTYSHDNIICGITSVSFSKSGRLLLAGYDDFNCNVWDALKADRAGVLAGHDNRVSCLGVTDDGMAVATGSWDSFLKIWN
T4 sequence (P59768 2-68 partner limits assumed): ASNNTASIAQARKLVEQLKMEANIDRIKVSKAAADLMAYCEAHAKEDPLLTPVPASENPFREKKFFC

β2AR-Gs complex [7] = biological target: T4, β2AR-Gs complex; conditions: complex purified by DDM, previous study; cited from earlier work
[8] = 1.5 wt %, extracted at 23° C., then 55° C.

Row | SMILES | Rh (nm), hydrodynamic radius of micelles [1] | CMC [2] | CMC (wt %) [2] | Long-term β2AR activity ([3H]-DHA binding) (β2AR) | UapA integrity after thermal treatment (FSEC) (UapA [3]) | Ability to extract and solubilize UapA (FSEC) (UapA [3]) | Ability to maintain UapA in a structurally stable state (CPM assay) (UapA [4]) | MelBSt solubilization efficiency [5, 8] | Homogeneity of β2AR-Gs complex particles (EM) (β2AR-Gs complex [6]) | Integrity of the purified β2AR-Gs complex (β2AR-Gs complex [7]) | MelBSt extraction/solubilization efficiency from the cell membrane ([5]; 1.5 wt % detergent, 0° C. and 23° C., 90 minutes) | MelBSt solubilization efficiency ([5]; 1.5 wt %, extracted at 23° C., then 45° C.) | MelBSt solubilization ability ([5]; 1.5 wt %, extracted at 23° C., then 65° C.) | MelBSt transporter solubilization ability in the thermal stability experiment ([5]; elevated temperatures (overall))
1 | Cc1c(C)c2c(c(C)c1OCC(CO[C@@H]1OC(CO)[C@@H](O)[C@H](O)C1O)(CO[C@@H]1OC(CO)[C@@H](O)[C@H](O)C1O)CO[C@@H]1OC(CO)[C@@H](O)[C@H](O)C1O)CCC(C)(CCCC(C)CCCC(C)CCCC(C)C)O2 (stereo partly shown) [VEG-1] | 4.2 ± 0.1 nm | ~0.002 mM | ~0.0002 wt % | – | – | – | – | – | – | – | – | – | – | –
2 | Cc1c(C)c2c(c(C)c1O[C@@H]1OC(CO[C@@H]3OC(CO)[C@@H](O)[C@H](O)C3O)[C@@H](O[C@@H]3OC(CO)[C@@H](O)[C@H](O)C3O)[C@H](O[C@@H]3OC(CO)[C@@H](O)[C@H](O)C3O)C1O[C@@H]1OC(CO)[C@@H](O)[C@H](O)C1O)CCC(C)(CCCC(C)CCCC(C)CCCC(C)C)O2 (stereo partly shown) [VEG-5] | 3.9 ± 0.1 nm | ~0.002 mM | ~0.0002 wt % | rapid loss of activity over time | maintained protein integrity | LMNG and DDM were superior to VEG-3 and VEG-5 | excellent ability to maintain UapA in a structurally stable state | remained intact | – | – | – | – | – | –
3 | Cc1c(C)c2c(c(C)c1OCCOCC(CO[C@@H]1OC(CO)[C@@H](O)[C@H](O)C1O)(CO[C@@H]1OC(CO)[C@@H](O)[C@H](O)C1O)CO[C@@H]1OC(CO)[C@@H](O)[C@H](O)C1O)CCC(C)(CCCC(C)CCCC(C)CCCC(C)C)O2 (stereo partly shown) [VEG-2] | 4.7 ± 0.1 nm | ~0.003 mM | ~0.0003 wt % | consistently maintained during incubation for 10 days | – | – | – | – | – | – | – | – | – | –
4 | CCCCCCCCCCCCO[C@@H]1O[C@H](CO)[C@@H](O[C@H]2O[C@H](CO)[C@@H](O)[C@H](O)[C@H]2O)[C@H](O)[C@H]1O [DDM, n-dodecyl-β-D-maltopyranoside, reference compound] | 3.4 ± 0.0 nm | 0.17 mM and 0.170 mM | 0.0087 wt % | rapid loss of activity over time | considerably degraded | superior to VEG-3 and VEG-5 | – | significant decrease | aggregation of particles | significant dissociation between the receptor and Gs protein even after 2 day-incubation | more efficient; also recorded: higher protein extraction efficiency than VEGs | almost similar efficiencies | – | –
5 | CCCCCCCCCCC(CCCCCCCCCC)(CO[C@@H]1O[C@H](CO)[C@@H](O[C@H]2O[C@H](CO)[C@@H](O)[C@H](O)[C@H]2O)[C@H](O)[C@H]1O)CO[C@@H]1O[C@H](CO)[C@@H](O[C@H]2O[C@H](CO)[C@@H](O)[C@H](O)[C@H]2O)[C@H](O)[C@H]1O [LMNG, reference compound] | – | – | – | – | considerably degraded | superior to VEG-3 and VEG-5 | – | – | – | – | – | – | – | –
6 | Cc1c(C)c2c(c(C)c1OCCC(CO[C@@H]1OC(CO)[C@@H](O[C@H]3OC(CO)[C@@H](O)[C@H](O)C3O)[C@H](O)C1O)CO[C@@H]1OC(CO)[C@@H](O[C@H]3OC(CO)[C@@H](O)[C@H](O)C3O)[C@H](O)C1O)CCC(C)(CCCC(C)CCCC(C)CCCC(C)C)O2 (stereo partly shown) [VEG-4] | 5.1 ± 0.1 nm | ~0.003 mM | ~0.0003 wt % | – | – | – | – | remained intact | – | – | – | – | very excellent protein solubilization ability | higher transporter solubilization ability than DDM
